Data as given in the CheMixHub ionic liquid set.
± gives the uncertainty stated by the source.

Test: xn = mol fraction of the nth substance listed

CCCCCCCCCCCCCC[P+](CCCCCC)(CCCCCC)CCCCCC.O=S(=O)([N-]S(=O)(=O)C(F)(F)F)C(F)(F)F + CCCCCC[n+]1ccn(C)c1.O=S(=O)([N-]S(=O)(=O)C(F)(F)F)C(F)(F)F
100 kPa
Conditions	viscosity [mPa·s]
278.15 K, x2 = 0.404	870 ± 120
283.15 K, x2 = 0.097	770 ± 100

CC(C)O + CCCCCC[n+]1ccn(C)c1.O=S(=O)([O-])C(F)(F)F
100 kPa, x1 = 1
Conditions	viscosity [mPa·s]
298.15 K	2.05 ± 0.21
308.15 K	1.49 ± 0.15

CC(C)O + CCCCCC[n+]1ccn(C)c1.O=[N+]([O-])[O-]
100 kPa, x2 = 0
Conditions	viscosity [mPa·s]
293.15 K	2.42 ± 0.12
298.15 K	2.08 ± 0.1
303.15 K	1.8 ± 0.09
308.15 K	1.56 ± 0.08
313.15 K	1.36 ± 0.07
318.15 K	1.19 ± 0.06
323.15 K	1.05 ± 0.05

CCCCC[N+](CC)(CC)CC.O=S(=O)([N-]S(=O)(=O)C(F)(F)F)C(F)(F)F + CCCCC[P+](CC)(CC)CC.O=S(=O)([N-]S(=O)(=O)C(F)(F)F)C(F)(F)F
101.3 kPa
Conditions	viscosity [mPa·s]
298.15 K, x1 = 0.6	123 ± 25
303.15 K, x1 = 1	126 ± 25
318.15 K, x1 = 0.2	39.5 ± 7.9
338.15 K, x1 = 0.6	22.8 ± 4.6
343.15 K, x1 = 1	23.3 ± 4.7
348.15 K, x1 = 0.8	18.3 ± 3.7
353.15 K, x1 = 0.2	13.1 ± 2.6
353.15 K, x1 = 1	17.3 ± 3.5

CCCCCCCCn1cc[n+](C)c1.O=[N+]([O-])[O-] + CCCCO
101 kPa
Conditions	viscosity [mPa·s]
283.15 K, x2 = 0.168	770 ± 280
293.15 K, x2 = 0.358	137 ± 19
293.15 K, x2 = 0.57	38.5 ± 1.5
293.15 K, x2 = 0.676	20.63 ± 0.9
293.15 K, x2 = 0.848	7.8 ± 0.58
298.15 K, x2 = 0.458	59.3 ± 1.9
298.15 K, x2 = 0.57	31.8 ± 1.3
298.15 K, x2 = 0.848	6.79 ± 0.56
303.15 K, x2 = 0.458	47.9 ± 1.8
303.15 K, x2 = 0.676	14.91 ± 0.74
308.15 K, x2 = 0.358	64.5 ± 2.6
308.15 K, x2 = 0.676	12.81 ± 0.68
313.15 K, x2 = 0.168	123 ± 15
313.15 K, x2 = 0.358	52.2 ± 1.2
318.15 K, x2 = 0.358	42.8 ± 1.6
323.15 K, x2 = 0.458	23.19 ± 0.96
323.15 K, x2 = 0.57	14.15 ± 0.71
323.15 K, x2 = 0.676	8.67 ± 0.59
323.15 K, x2 = 0.848	3.61 ± 0.52
328.15 K, x2 = 0.458	17.18 ± 0.8

CCCC[n+]1ccn(C)c1.O=S(=O)([O-])C(F)(F)F + CCCCO
viscosity [mPa·s], 100 kPa
Conditions	x1 = 0.1091	x1 = 0.2147	x1 = 0.2908	x1 = 0.4008	x1 = 0.5123	x1 = 0.5928	x1 = 0.6991	x1 = 0.8056	x1 = 0.9078	x1 = 1
298.15 K	3.69 ± 0.74	6.2 ± 1.2	8.9 ± 1.8	14.2 ± 2.9	20.6 ± 4.1	26 ± 5.2	35.4 ± 7.1	47.6 ± 9.5	63 ± 13	82 ± 17
303.15 K	3.24 ± 0.65	5.1 ± 1	6.9 ± 1.4	11.5 ± 2.3	17.5 ± 3.5	22.6 ± 4.5	30.2 ± 6	38.8 ± 7.8	51 ± 10	67 ± 13
308.15 K	2.87 ± 0.57	4.45 ± 0.89	6 ± 1.2	11 ± 2.2	15.3 ± 3.1	19.3 ± 3.9	25.4 ± 5.1	32 ± 6.4	40.6 ± 8.1	53 ± 11
313.15 K	2.55 ± 0.51	3.93 ± 0.79	5.3 ± 1.1	9.5 ± 1.9	13.6 ± 2.7	16.9 ± 3.4	21.6 ± 4.3	27.2 ± 5.4	34.7 ± 6.9	43.7 ± 8.8
318.15 K	2.27 ± 0.45	3.48 ± 0.7	4.68 ± 0.94	7.9 ± 1.6	11.2 ± 2.2	13.8 ± 2.8	17.8 ± 3.6	22.6 ± 4.5	28.5 ± 5.7	36.3 ± 7.3
323.15 K	2.04 ± 0.41	3.11 ± 0.62	4.17 ± 0.84	7.2 ± 1.4	10.1 ± 2	12.4 ± 2.5	15.8 ± 3.2	19.3 ± 3.9	24.4 ± 4.9	30.6 ± 6.1

CCCCCCCCn1cc[n+](C)c1.F[B-](F)(F)F + CCCCOC(C)=O
298.15 K, 101 kPa
Conditions	viscosity [mPa·s]
x2 = 0.114	187 ± 11
x2 = 0.4512	34.1 ± 0.44
x2 = 0.9065	1.76 ± 0.03
